Where a SMILES comes first, the peptide text is derived from it. Bridges are numbered along the chain shown (N, C = ends).
experiment: Determination of the protein binding (90% serum, 30 kDa filter, HPLC); format: in vitro ADME; conditions: serum
Procedure: Protein binding assays were performed as follows. The purified peptides were mixed with 90% serum and centrifuged through a 30 kDa filter. The ultra-filtrate and the non filtrated serum samples were quantified by HPLC measurements and the protein binding was subsequently calculated.

Row | SMILES | fraction unbound
1 | CC(C)[C@@H]1NC(=O)CNC(=O)[C@H](CC(N)=O)NC(=O)[C@H](CCCNC(=N)N)NC(=O)[C@H](Cc2ccc(O)cc2)NC(=O)[C@H](C(C)C)NC(=O)[C@@H]2CSSC[C@H](NC(=O)[C@H](CC(N)=O)NC(=O)[C@H](CCCNC(=N)N)NC1=O)C(=O)N[C@@H](Cc1c[nH]cn1)C(=O)N[C@@H](CCCNC(=N)N)C(=O)N[C@@H](CCCNC(=N)N)C(=O)N[C@H](C(=O)N[C@@H](CC(N)=O)C(=O)O)CSSC[C@H](NC(=O)[C@H](Cc1ccccc1)NC(=O)CN)C(=O)N[C@@H](Cc1c[nH]c3ccccc13)C(=O)N[C@@H](CC(N)=O)C(=O)N[C@@H](C(C)C)C(=O)N2 [compound 251] (H-GFCWNVCVYRNGVRNCHRRCN-OH; disulfide 3-20, 7-16 (inferred); N-terminus and C-terminus assumed) | 0.29
2 | CC(C)[C@@H]1NC(=O)CNC(=O)[C@H](CC(N)=O)NC(=O)[C@H](CCCNC(=N)N)NC(=O)[C@H](Cc2ccc(O)cc2)NC(=O)[C@H](C(C)C)NC(=O)[C@@H]2CSSC[C@H](NC(=O)[C@H](CCCNC(=N)N)NC(=O)[C@H](CCCNC(=N)N)NC1=O)C(=O)N[C@@H](Cc1c[nH]cn1)C(=O)N[C@@H](CCCNC(=N)N)C(=O)N[C@@H](CCCNC(=N)N)C(=O)N[C@H](C(=O)N[C@@H](CC(N)=O)C(=O)O)CSSC[C@H](NC(=O)[C@H](Cc1ccccc1)NC(=O)CN)C(=O)N[C@@H](Cc1c[nH]c3ccccc13)C(=O)N[C@@H](CC(N)=O)C(=O)N[C@@H](C(C)C)C(=O)N2 [compound 252] (H-GFCWNVCVYRNGVRRCHRRCN-OH; disulfide 3-20, 7-16 (inferred); N-terminus and C-terminus assumed) | 0.24
3 | CC(C)[C@@H]1NC(=O)CNC(=O)[C@H](CC(N)=O)NC(=O)[C@H](CCCNC(=N)N)NC(=O)[C@H](Cc2ccc(O)cc2)NC(=O)[C@H](C(C)C)NC(=O)[C@@H]2CSSC[C@H](NC(=O)[C@H](Cc3c[nH]c4ccccc34)NC(=O)[C@H](CCCNC(=N)N)NC1=O)C(=O)N[C@@H](Cc1c[nH]cn1)C(=O)N[C@@H](CCCNC(=N)N)C(=O)N[C@@H](CCCNC(=N)N)C(=O)N[C@H](C(=O)N[C@@H](CC(N)=O)C(=O)O)CSSC[C@H](NC(=O)[C@H](Cc1ccccc1)NC(=O)CN)C(=O)N[C@@H](Cc1c[nH]c3ccccc13)C(=O)N[C@@H](CC(N)=O)C(=O)N[C@@H](C(C)C)C(=O)N2 [compound 253] (H-GFCWNVCVYRNGVRWCHRRCN-OH; disulfide 3-20, 7-16 (inferred); N-terminus and C-terminus assumed) | 0.06
4 | CC(C)[C@@H]1NC(=O)CNC(=O)[C@H](CC(N)=O)NC(=O)[C@H](CCCNC(=N)N)NC(=O)[C@H](Cc2ccc(O)cc2)NC(=O)[C@H](C(C)C)NC(=O)[C@@H]2CSSC[C@H](NC(=O)[C@H](Cc3ccc(O)cc3)NC(=O)[C@H](CCCNC(=N)N)NC1=O)C(=O)N[C@@H](Cc1c[nH]cn1)C(=O)N[C@@H](CCCNC(=N)N)C(=O)N[C@@H](CCCNC(=N)N)C(=O)N[C@H](C(=O)N[C@@H](CC(N)=O)C(=O)O)CSSC[C@H](NC(=O)[C@H](Cc1ccccc1)NC(=O)CN)C(=O)N[C@@H](Cc1c[nH]c3ccccc13)C(=O)N[C@@H](CC(N)=O)C(=O)N[C@@H](C(C)C)C(=O)N2 [compound 254] (H-GFCWNVCVYRNGVRYCHRRCN-OH; disulfide 3-20, 7-16 (inferred); N-terminus and C-terminus assumed) | 0.23
5 | CC(C)[C@@H]1NC(=O)CNC(=O)[C@H](CC(N)=O)NC(=O)[C@H](CCCNC(=N)N)NC(=O)[C@H](CCCCN)NC(=O)[C@H](C(C)C)NC(=O)[C@@H]2CSSC[C@H](NC(=O)[C@H](C(C)C)NC(=O)[C@H](CCCNC(=N)N)NC1=O)C(=O)N[C@@H](Cc1ccc(O)cc1)C(=O)N[C@@H](CCCNC(=N)N)C(=O)N[C@@H](CCCNC(=N)N)C(=O)N[C@H](C(=O)N[C@@H](CC(N)=O)C(=O)O)CSSC[C@H](NC(=O)[C@H](Cc1ccccc1)NC(=O)CN)C(=O)N[C@@H](Cc1c[nH]c3ccccc13)C(=O)N[C@@H](CC(N)=O)C(=O)N[C@@H](C)C(=O)N2 [compound 258] (H-GFCWNACVKRNGVRVCYRRCN-OH; disulfide 3-20, 7-16 (inferred); N-terminus and C-terminus assumed) | 0.11
6 | CC(C)[C@@H]1NC(=O)CNC(=O)[C@H](CC(N)=O)NC(=O)[C@H](CCCNC(=N)N)NC(=O)[C@H](Cc2ccc(O)cc2)NC(=O)[C@H](C(C)C)NC(=O)[C@@H]2CSSC[C@H](NC(=O)[C@H](C(C)C)NC(=O)[C@H](CCCNC(=N)N)NC1=O)C(=O)N[C@@H](Cc1c[nH]cn1)C(=O)N[C@@H](CCCNC(=N)N)C(=O)N[C@@H](CCCNC(=N)N)C(=O)N[C@H](C(=O)N[C@@H](CC(N)=O)C(=O)O)CSSC[C@H](NC(=O)[C@H](Cc1ccccc1)NC(=O)CN)C(=O)N[C@@H](Cc1c[nH]c3ccccc13)C(=O)N[C@@H](CC(N)=O)C(=O)N[C@@H](Cc1ccccc1)C(=O)N2 [compound 260] (H-GFCWNFCVYRNGVRVCHRRCN-OH; disulfide 3-20, 7-16 (inferred); N-terminus and C-terminus assumed) | 0.16
7 | CC[C@H](C)[C@@H]1NC(=O)[C@H](CC(N)=O)NC(=O)[C@H](Cc2c[nH]c3ccccc23)NC(=O)[C@@H](NC(=O)[C@H](Cc2ccccc2)NC(=O)CN)CSSC[C@@H](C(=O)N[C@@H](CC(N)=O)C(=O)O)NC(=O)[C@H](CCCNC(=N)N)NC(=O)[C@H](CCCNC(=N)N)NC(=O)[C@H](Cc2c[nH]cn2)NC(=O)[C@@H]2CSSC[C@H](NC1=O)C(=O)N[C@@H](C(C)C)C(=O)N[C@@H](Cc1ccc(O)cc1)C(=O)N[C@@H](CCCNC(=N)N)C(=O)N[C@@H](CC(N)=O)C(=O)NCC(=O)N[C@@H](C(C)C)C(=O)N[C@@H](CCCNC(=N)N)C(=O)N[C@@H](C(C)C)C(=O)N2 [compound 262] (H-GFCWNICVYRNGVRVCHRRCN-OH; disulfide 3-20, 7-16 (inferred); N-terminus and C-terminus assumed) | 0.12
8 | CC(C)C[C@@H]1NC(=O)[C@H](CC(N)=O)NC(=O)[C@H](Cc2c[nH]c3ccccc23)NC(=O)[C@@H](NC(=O)[C@H](Cc2ccccc2)NC(=O)CN)CSSC[C@@H](C(=O)N[C@@H](CC(N)=O)C(=O)O)NC(=O)[C@H](CCCNC(=N)N)NC(=O)[C@H](CCCNC(=N)N)NC(=O)[C@H](Cc2c[nH]cn2)NC(=O)[C@@H]2CSSC[C@H](NC1=O)C(=O)N[C@@H](C(C)C)C(=O)N[C@@H](Cc1ccc(O)cc1)C(=O)N[C@@H](CCCNC(=N)N)C(=O)N[C@@H](CC(N)=O)C(=O)NCC(=O)N[C@@H](C(C)C)C(=O)N[C@@H](CCCNC(=N)N)C(=O)N[C@@H](C(C)C)C(=O)N2 [compound 263] (H-GFCWNLCVYRNGVRVCHRRCN-OH; disulfide 3-20, 7-16 (inferred); N-terminus and C-terminus assumed) | 0.2
9 | CC(C)[C@@H]1NC(=O)CNC(=O)[C@H](CC(N)=O)NC(=O)[C@H](CCCNC(=N)N)NC(=O)[C@H](Cc2ccc(O)cc2)NC(=O)[C@H](C(C)C)NC(=O)[C@@H]2CSSC[C@H](NC(=O)[C@H](C(C)C)NC(=O)[C@H](CCCNC(=N)N)NC1=O)C(=O)N[C@@H](Cc1c[nH]cn1)C(=O)N[C@@H](CCCNC(=N)N)C(=O)N[C@@H](CCCNC(=N)N)C(=O)N[C@H](C(=O)N[C@@H](CC(N)=O)C(=O)O)CSSC[C@H](NC(=O)[C@H](Cc1ccccc1)NC(=O)CN)C(=O)N[C@@H](Cc1c[nH]c3ccccc13)C(=O)N[C@@H](CC(N)=O)C(=O)N[C@@H](Cc1c[nH]c3ccccc13)C(=O)N2 [compound 267] (H-GFCWNWCVYRNGVRVCHRRCN-OH; disulfide 3-20, 7-16 (inferred); N-terminus and C-terminus assumed) | 0.15
10 | CC(C)[C@@H]1NC(=O)CNC(=O)[C@H](CC(N)=O)NC(=O)[C@H](CCCNC(=N)N)NC(=O)[C@H](Cc2ccc(O)cc2)NC(=O)[C@H](Cc2ccccc2)NC(=O)[C@@H]2CSSC[C@H](NC(=O)[C@H](C(C)C)NC(=O)[C@H](CCCNC(=N)N)NC1=O)C(=O)N[C@@H](Cc1c[nH]cn1)C(=O)N[C@@H](CCCNC(=N)N)C(=O)N[C@@H](CCCNC(=N)N)C(=O)N[C@H](C(=O)N[C@@H](CC(N)=O)C(=O)O)CSSC[C@H](NC(=O)[C@H](Cc1ccccc1)NC(=O)CN)C(=O)N[C@@H](Cc1c[nH]c3ccccc13)C(=O)N[C@@H](CC(N)=O)C(=O)N[C@@H](C(C)C)C(=O)N2 [compound 272] (H-GFCWNVCFYRNGVRVCHRRCN-OH; disulfide 3-20, 7-16) | 0.26
11 | CC(C)C[C@@H]1NC(=O)[C@@H]2CSSC[C@H](NC(=O)[C@H](C(C)C)NC(=O)[C@H](CCCNC(=N)N)NC(=O)[C@H](C(C)C)NC(=O)CNC(=O)[C@H](CC(N)=O)NC(=O)[C@H](CCCNC(=N)N)NC(=O)[C@H](Cc3ccc(O)cc3)NC1=O)C(=O)N[C@@H](Cc1c[nH]cn1)C(=O)N[C@@H](CCCNC(=N)N)C(=O)N[C@@H](CCCNC(=N)N)C(=O)N[C@H](C(=O)N[C@@H](CC(N)=O)C(=O)O)CSSC[C@H](NC(=O)[C@H](Cc1ccccc1)NC(=O)CN)C(=O)N[C@@H](Cc1c[nH]c3ccccc13)C(=O)N[C@@H](CC(N)=O)C(=O)N[C@@H](C(C)C)C(=O)N2 [compound 275] (H-GFCWNVCLYRNGVRVCHRRCN-OH; disulfide 3-20, 7-16 (inferred); N-terminus and C-terminus assumed) | 0.2
12 | CC(C)[C@@H]1NC(=O)CNC(=O)[C@H](CC(N)=O)NC(=O)[C@H](CCCNC(=N)N)NC(=O)[C@H](Cc2ccc(O)cc2)NC(=O)[C@H](C(C)C)NC(=O)[C@@H]2CSSC[C@H](NC(=O)[C@H](C(C)C)NC(=O)[C@H](CCCNC(=N)N)NC1=O)C(=O)N[C@@H](Cc1c[nH]cn1)C(=O)N[C@@H](CCCNC(=N)N)C(=O)N[C@@H](CCCNC(=N)N)C(=O)N[C@H](C(=O)NCC(=O)O)CSSC[C@H](NC(=O)[C@H](Cc1ccccc1)NC(=O)CN)C(=O)N[C@@H](Cc1c[nH]c3ccccc13)C(=O)N[C@@H](CC(N)=O)C(=O)N[C@@H](C(C)C)C(=O)N2 [compound 281] (H-GFCWNVCVYRNGVRVCHRRCG-OH; disulfide 3-20, 7-16 (inferred); N-terminus and C-terminus assumed) | 0.34

Source: patent US20160158317A1, “Antimicrobial Peptide Variants and Polynucleotides Encoding Same” (Adenium Biotech A/S, priority 2010, published 2016)
